In patent US6268537A, “Method of synthesis of lithium substituted borohydride reagents and method of synthesis of reactive lithium hydride” (priority 1999, dated 2001):

Test: solubility of LiH in THF
Conditions: room temperature

SMILES: [H-].[Li+] [LiH, lithium hydride]
- solubility of LiH in THF: less than 0.00089 mol per liter
